Data reported in article PMC8765310, “Metabolism, Excretion, and Mass Balance of [^14C]-Rezafungin in Animals and Humans” (Antimicrobial Agents and Chemotherapy, 2022).
*1 amine or outer side, *2 acyl side, *3 side chain or, on linkers, in order; H or OH if unused. Where a SMILES comes first, the peptide text is derived from it. Bridges are numbered along the chain shown (N, C = ends). [ ]: non-standard residue; d: D form. The star is where a group is joined. Orn(4R-OH,5R-OCH2CH2NMe3+) = C[N+](C)(C)CCO[C@@H](N[*:3])[C@H](O)C[C@H](N[*:1])C(=O)[*:2]; hTyr(3S-OH,4S-OH) = N[C@H](C(=O)O)[C@H](O)[C@@H](O)c1ccc(O)cc1; X1 = CC(O)CCCOc1ccc(-c2ccc(-c3ccc(C(=O)*)cc3)cc2)cc1; X2 = CCCC(O)COc1ccc(-c2ccc(-c3ccc(C(=O)*)cc3)cc2)cc1; X3 = CCC(O)CCOc1ccc(-c2ccc(-c3ccc(C(=O)*)cc3)cc2)cc1; Pro(3S-OH,4S-Me) = C[C@H]1CN[C@H](C(=O)O)[C@H]1O; X4 = O=C(c1ccc(-c2ccc(-c3ccc(O)cc3)cc2)cc1)*; Hyp = O=C(O)[C@@H]1C[C@@H](O)CN1

Experiments:
[1] = Rat metabolite profiling (LC-MS with radioactivity detection); type: in vivo, Sprague-Dawley rats; settings: rat, in vivo, iv, 15 mg/kg
Protocol: (i) Rat study design. The study used 12 male Sprague-Dawley rats, each administered a bolus IV injection into the tail vein over approximately 3–4 min of 15 mg/kg of rezafungin (with a target radioactivity of 200 μCi/kg of [^14C]-rezafungin). Three of the rats were bile duct cannulated. Whole blood/plasma, urine, feces/bile, and cage washings were collected at periodic intervals from noncannulated rats until euthanization at 336 h postdose and from bile duct cannulated rats until euthanization at 120 h postdose as that was the duration that the patency of bile duct cannulae could be maintained. Carcasses were collected at the time of euthanization. All samples were analyzed for drug-derived radioactivity by liquid scintillation counting.
(§1) (iv) Metabolite profiling. The metabolite identification and urine profiling were achieved using pooled samples by equal percent weight of samples (urine, bile, feces) or by equal volume (50 μl) aliquots of each plasma sample across all time points/intervals. The urine, plasma, bile, and fecal samples were analyzed using liquid chromatography tandem mass spectrometry (LC-MS) coupled with a radioactivity flow-through detector for metabolite profiling and identification. Tandem MS experiments were performed, and the structures of the metabolites were proposed based on their MS/MS spectra. The proposed structures were confirmed by comparison of the retention times and product ion spectra with the authentic reference standards when possible.

[2] = Monkey metabolite profiling (LC-MS with radioactivity detection); type: in vivo, cynomolgus monkeys; settings: cynomolgus monkey, in vivo, iv, 10 mg/kg
Protocol: (ii) Monkey study design. The study used 3 male cynomolgus monkeys, each administered a single 10 mg/kg IV dose of [^14C]-rezafungin (with a target radioactivity of 100 μCi/kg of [^14C]-rezafungin) by infusion into a saphenous vein over 20 min. Whole blood and plasma samples were collected at each of the following time points: predose, 0.5, 2, 4, 8, 24, 48, 96 120, 144, 168, 240, 480, 720, and 1440 h postdose. Urine, feces, and cage washings were collected at predose (urine/feces only) and daily 24-h collections for 30 days.
as §1

[3] = cited from earlier work
Source text: Biliary excretion has been observed for caspofungin([17]) and anidulafungin([18]). In the case of anidulafungin, although uncommon, passive diffusion (up to 10% of dosed fraction) was reported for anidulafungin, with which rezafungin ...

Compound	Share of total plasma radioactivity exposure [1]	Share of total recovered radioactivity in urine [1] [%]	Share of total plasma radioactivity exposure [2] [%]	Share of total recovered radioactivity in urine [2] [%]	Share of total recovered radioactivity in feces [2] [%]	Passive diffusion, dosed fraction [3]
CCCC(O)COc1ccc(-c2ccc(-c3ccc(C(=O)N[C@H]4C[C@@H](O)[C@@H](OCC[N+](C)(C)C)NC(=O)[C@@H]5[C@@H](O)[C@@H](C)CN5C(=O)[C@H]([C@@H](C)O)NC(=O)[C@H]([C@H](O)[C@@H](O)c5ccc(O)cc5)NC(=O)[C@@H]5C[C@@H](O)CN5C(=O)[C@H]([C@@H](C)O)NC4=O)cc3)cc2)cc1 (stereo partly drawn) [2’-hydroxylpentyl rezafungin] (X2-[Orn(4R-OH,5R-OCH2CH2NMe3+)]T[Hyp][hTyr(3S-OH,4S-OH)]T[Pro(3S-OH,4S-Me)]; lactam 1-C)	~11%	7.8	3.0	25		
CCC(O)CCOc1ccc(-c2ccc(-c3ccc(C(=O)N[C@H]4C[C@@H](O)[C@@H](OCC[N+](C)(C)C)NC(=O)[C@@H]5[C@@H](O)[C@@H](C)CN5C(=O)[C@H]([C@@H](C)O)NC(=O)[C@H]([C@H](O)[C@@H](O)c5ccc(O)cc5)NC(=O)[C@@H]5C[C@@H](O)CN5C(=O)[C@H]([C@@H](C)O)NC4=O)cc3)cc2)cc1 (stereo partly drawn) [3′-hydroxylpentyl rezafungin] (X3-[Orn(4R-OH,5R-OCH2CH2NMe3+)]T[Hyp][hTyr(3S-OH,4S-OH)]T[Pro(3S-OH,4S-Me)]; lactam 1-C)		1.9	6.3	12		
anidulafungin						up to 10 % of dosed fraction

Continued, in another order:

Share of total plasma radioactivity exposure [1]	Share of total recovered radioactivity in urine [1] [%]	Share of total plasma radioactivity exposure [2] [%]	Share of total recovered radioactivity in urine [2] [%]	Share of total recovered radioactivity in feces [2] [%]	Compound	Passive diffusion, dosed fraction [3]
about 33%	62	8.3	42		CC(O)CCCOc1ccc(-c2ccc(-c3ccc(C(=O)N[C@H]4C[C@@H](O)[C@@H](OCC[N+](C)(C)C)NC(=O)[C@@H]5[C@@H](O)[C@@H](C)CN5C(=O)[C@H]([C@@H](C)O)NC(=O)[C@H]([C@H](O)[C@@H](O)c5ccc(O)cc5)NC(=O)[C@@H]5C[C@@H](O)CN5C(=O)[C@H]([C@@H](C)O)NC4=O)cc3)cc2)cc1 (stereo partly drawn) [4’-hydroxylpentyl rezafungin] (X1-[Orn(4R-OH,5R-OCH2CH2NMe3+)]T[Hyp][hTyr(3S-OH,4S-OH)]T[Pro(3S-OH,4S-Me)]; lactam 1-C)	
	28		22	25	C[C@@H](O)[C@@H]1NC(=O)[C@H]([C@H](O)[C@@H](O)c2ccc(O)cc2)NC(=O)[C@@H]2C[C@@H](O)CN2C(=O)[C@H]([C@@H](C)O)NC(=O)[C@@H](NC(=O)c2ccc(-c3ccc(-c4ccc(O)cc4)cc3)cc2)C[C@@H](O)[C@@H](OCC[N+](C)(C)C)NC(=O)[C@@H]2[C@@H](O)[C@@H](C)CN2C1=O [despentyl-rezafungin] (X4-[Orn(4R-OH,5R-OCH2CH2NMe3+)]T[Hyp][hTyr(3S-OH,4S-OH)]T[Pro(3S-OH,4S-Me)]; lactam 1-C)	
